According to patent publication US12590080B2, “Compounds” (PACKINAX PTY LTD, priority 2020, dated 2026):
“Also recorded” adds a separate entry of the source. Counter-ions that a name gives are not always drawn. Like-named read-outs stand apart in the source and are kept apart here. Values belong to the molecule of their own block, whether it stands above or below them.

Legend:
[1] = tested on: KPCWT833 (pancreatic cancer); assay: Cell proliferation, KPCWT833; type: cell-based
From the text: (§1) Pancreatic cancer cell lines MiaPaCa-2, PANC1 (human), TB33117 (mouse), and KPCWT833 were used to test the effect of Compound Ia on cell proliferation. PANC1 and TB33117 cell lines express high levels of PAK1 and PAK4, while MiaPaCa-2 cell has low levels of PAK1 and PAK4 (Yeo, 2014 and unpublished data). […] Compound Ia was also shown to inhibit colorectal cell line MC-38, brain glioblastoma cancer cell like U-87, melanoma cell line B16F1, liver cell line HepG2, and bile duct cancer cell line EIG-1 at low to sub-micromolar IC50 values.

PAK1 = PAK1 (Homo sapiens, UniProt Q13153); assay: Cell-free kinase assay, PAK1; type: biochemical
[2] = tested on: TB33117 (pancreatic cancer); assay: Cell proliferation, TB33117; type: cell-based, mouse
From the text: as §1

KPC833 cells = assay: In vivo efficacy in combination with Gemcitabine, subcutaneous KPC833 tumours in C57Bl6
PAK4 = assay: Western blot of PAK4 expression in DLD-1 cells; type: cell-based; conditions: 24 h
Protocol: (§2) Cells from a colorectal cancer cell line (DLD-1) were incubated with Compound Ia (0, 1, 10, 20, 50 μM), or with compound PF-3758309 (500 nM) for 24 h. At the end of 24 h culture, the medium was removed from the cells, and the cells were washed once with PBS. The cells were lysed in SDS-sample buffer. The resultant cell lysates were subjected to 10% SDS-PAGE to separate the proteins with different molecular weights, which then were blotted with antibodies against PD-L1, PAK1, PAK4, α-SMA and GAPDH.

[3] = tested on: alpha smooth muscle actin (α-SMA); assay: Western blot of α-SMA expression in DLD-1 cells; type: cell-based; conditions: 24 h
Protocol: as §2

CHEK2 = target: T1, CHEK2 (Homo sapiens, UniProt O96017); assay: ADP-Glo kinase assay, CHEK2; type: biochemical
T1 construct: purchased Promega (Sydney, NSW, Australia)
Protocol: The effects of Compound Ia on CHEK2 kinase activity was assessed using an ADP-Glo kinase assay kit purchased from Promega (Sydney, NSW, Australia). The assay was undertaken in accordance with the manufacturer's instructions.

B16F10 (skin cancer) = assay: Cell proliferation, B16F10; type: cell-based; conditions: Mus musculus, B16-F10
[4] = tested on: PANC1 (pancreatic cancer); assay: Cell proliferation, PANC1; type: cell-based, human
From the text: as §1

PAK4 kinase = PAK4 kinase (Homo sapiens, UniProt O96013); assay: Cell-free kinase assay, PAK4; type: biochemical; conditions: read-out: IC50, inhibition of PAK4 kinase
U-87 (brain tumour) = assay: Cell proliferation, U-87; type: cell-based; conditions: Homo sapiens, U-87 MG
From the text: as §1

[5] = tested on: immunological biomarkers in tumour tissues; assay: Immunological biomarkers in tumour tissues by flow cytometry, syngeneic mouse models of pancreatic cancer; type: in vivo; conditions: combination with Gemcitabine
Protocol: The effects of Compound Ia on immunological biomarkers was assessed using syngeneic mouse models of pancreatic cancer.
Single cell suspension was made from tumour tissues isolated from mice treated with either gemcitabine alone or gemcitabine plus PAK227. The cell suspension was incubated with antibodies against CD45, CD4, CD8, B220, PD-L1, PD-1, CD11b and Ly6c, and then subjected to a flow-cytometry machine for cell number counting and percentage calculation.

HepG2 (liver cancer) = assay: Cell proliferation, HepG2; type: cell-based; conditions: Homo sapiens
From the text: as §1

MC-38 (colon cancer) = assay: Cell proliferation, MC-38; type: cell-based; conditions: Mus musculus
From the text: as §1

PD-L1 = assay: Western blot of PD-L1 expression in DLD-1 cells; type: cell-based; conditions: DLD-1 cells, 0, 1, 10, 20, 50 μM, 24 h
Protocol: as §2

[6] = tested on: MiaPaCa-2 (pancreatic cancer); assay: Cell proliferation, MiaPaCa-2; type: cell-based; conditions: Homo sapiens, MIA PaCa-2
From the text: as §1

[7] = tested on: EIG-1 (cholangiocarcinoma); assay: Cell proliferation, EIG-1; type: cell-based
From the text: as §1

[8] = Dissolution of the prodrug in ethanol/water; type: physicochemical; conditions: 67% ethanol in water solution

Chain of PAK1 (Q13153 whole entry): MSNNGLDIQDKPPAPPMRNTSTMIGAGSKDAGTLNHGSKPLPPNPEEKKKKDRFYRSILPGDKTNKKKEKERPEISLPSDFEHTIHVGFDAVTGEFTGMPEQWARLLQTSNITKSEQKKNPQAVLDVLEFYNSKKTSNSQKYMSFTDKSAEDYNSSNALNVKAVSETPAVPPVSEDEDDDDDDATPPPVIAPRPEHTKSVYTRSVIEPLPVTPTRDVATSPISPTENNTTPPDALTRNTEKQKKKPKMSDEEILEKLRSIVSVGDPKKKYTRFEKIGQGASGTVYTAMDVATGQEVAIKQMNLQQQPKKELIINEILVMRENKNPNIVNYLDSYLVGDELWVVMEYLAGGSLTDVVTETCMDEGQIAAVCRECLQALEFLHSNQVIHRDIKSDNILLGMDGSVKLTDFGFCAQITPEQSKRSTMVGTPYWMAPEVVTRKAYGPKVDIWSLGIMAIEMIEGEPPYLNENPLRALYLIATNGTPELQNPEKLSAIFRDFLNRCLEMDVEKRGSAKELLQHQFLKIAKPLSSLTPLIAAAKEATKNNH
Chain of PAK4 kinase (O96013 whole entry): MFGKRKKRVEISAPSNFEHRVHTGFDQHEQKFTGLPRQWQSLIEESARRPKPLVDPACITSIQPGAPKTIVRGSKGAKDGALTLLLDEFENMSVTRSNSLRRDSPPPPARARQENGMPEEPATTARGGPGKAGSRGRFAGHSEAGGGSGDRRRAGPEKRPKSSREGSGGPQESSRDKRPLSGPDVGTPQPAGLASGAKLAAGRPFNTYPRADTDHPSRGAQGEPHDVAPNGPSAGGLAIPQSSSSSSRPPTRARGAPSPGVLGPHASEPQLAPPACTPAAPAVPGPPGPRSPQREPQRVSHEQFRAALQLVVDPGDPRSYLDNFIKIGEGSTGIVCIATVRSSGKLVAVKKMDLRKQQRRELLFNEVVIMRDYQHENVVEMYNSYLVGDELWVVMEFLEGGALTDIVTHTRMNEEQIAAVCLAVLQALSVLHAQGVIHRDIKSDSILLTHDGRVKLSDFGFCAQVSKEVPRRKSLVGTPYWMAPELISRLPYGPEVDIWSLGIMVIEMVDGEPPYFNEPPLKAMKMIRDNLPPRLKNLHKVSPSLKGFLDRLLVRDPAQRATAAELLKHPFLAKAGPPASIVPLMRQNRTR
T1 sequence (O96017 whole entry): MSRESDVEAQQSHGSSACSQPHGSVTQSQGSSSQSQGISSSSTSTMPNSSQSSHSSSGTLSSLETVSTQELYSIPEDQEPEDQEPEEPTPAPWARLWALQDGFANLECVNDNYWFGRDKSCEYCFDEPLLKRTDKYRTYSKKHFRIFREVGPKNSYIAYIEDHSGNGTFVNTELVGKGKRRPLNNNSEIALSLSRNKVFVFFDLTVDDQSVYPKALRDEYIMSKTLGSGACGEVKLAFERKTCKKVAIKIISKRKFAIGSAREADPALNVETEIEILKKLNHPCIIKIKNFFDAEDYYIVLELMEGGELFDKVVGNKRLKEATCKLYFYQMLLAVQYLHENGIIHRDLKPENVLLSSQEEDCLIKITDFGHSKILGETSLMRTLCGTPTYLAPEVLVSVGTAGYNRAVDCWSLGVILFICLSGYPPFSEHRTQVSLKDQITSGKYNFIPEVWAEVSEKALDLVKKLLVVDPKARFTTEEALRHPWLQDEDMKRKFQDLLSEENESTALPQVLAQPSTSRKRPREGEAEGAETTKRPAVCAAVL

SMILES: CNc1ncc(-c2ccc(Cc3c(Cl)cc(OC)cc3Cl)o2)cn1 [Compound Ia, 5-[5-[(2,6-dichloro-4-methoxyphenyl)methyl]furan-2-yl]-N-methylpyrimidin-2-amine]
- IC50 [1]: 1.23 ± 0.39 µM
- effect on the kinase activity of PAK1 (PAK1): did not show significant effect
- IC50 [2]: 1 to 2 µM
- IC50 ([2]; Mus musculus): 1.72 µM
- toxicity (body weight) (KPC833 cells; combination with Gemcitabine): no body weight loss was observed
- tumour volume compared to untreated control tumours (KPC833 cells; combination with Gemcitabine, 21 days and 31 days, 40 mg/Kg subcutaneous every other day): regression of pancreatic tumour growth
- efficacy against advanced tumours compared to Gemcitabine alone (KPC833 cells; combination with Gemcitabine, tumour size=100 mm^3): improved efficacy
- tumour volume over 21 days compared to gemcitabine alone (KPC833 cells; intra-tumour injection 10 mg/kg on day 1, followed by gemcitabine 50 mg/kg): decreased tumour volume
- expression of PAK4 (PAK4): reduced expression
- expression of alpha smooth muscle actin (α-SMA) [3]: reduced expression
- IC50 (CHEK2): 0.737 µM
- IC50 (B16F10 (skin cancer)): 13.3 µM
- IC50 ([4]; Homo sapiens, PANC-1, PANC1): 1.11 µM
- IC50 ([4]; PANC1): 1 to 2 µM
- IC50 (PAK4 kinase): 0.2 to 0.5 µM
- IC50 (U-87 (brain tumour)): 6.55 ± 3.55 µM
- expression of immunological biomarkers in tumour tissues compared to Gemcitabine alone [5]: increases the expression of immunological biomarkers; also recorded: increases various immunological biomarkers
- IC50 (HepG2 (liver cancer)): 3.76 ± 0.66 µM
- IC50 (MC-38 (colon cancer)): 0.46 ± 0.39 µM
- expression of PD-L1 (PD-L1): dose-dependently inhibited
- expression of PD-L1 (PD-L1; listed as Compound Ta): reduced the expression of PD-L1 to a comparable level
- IC50 [6]: 8.29 µM
- IC50 [7]: 4.63 µM

- solubility in ethanol/water [8]: able to be dissolved
SMILES: COc1cc(Cl)c(Cc2ccc(-c3cnc(NC(=O)CN)nc3)o2)c(Cl)c1 [Compound Ic, 2-amino-N-(5-{5-[(2,6-dichloro-4-methoxyphenyl)methyl]furan-2-yl}pyrimidin-2-yl)acetamide hydrochloride]

- IC50 ([2]; Mus musculus): 0.805 µM
- IC50 ([4]; Homo sapiens, PANC-1, PANC1): 0.5 µM
- IC50 [6]: 0.087 µM
SMILES: Cc1nc(Nc2n[nH]c3c2CN(C(=O)N[C@H](CN(C)C)c2ccccc2)C3(C)C)c2sccc2n1 [PF3758309, reference compound]
